According to PubChem BioAssay AID1963846 (Molecular Pharmacology Branch, DTP, NCI, 2024):
Values joined by “and” are separate entries in the source; they are usually repeats but may differ in a detail not shown here. Equal values may be shown once.

Test system: 454973-116-R2-J3-PDC complex spheroid viability
Assay: Anticancer human tumor 454973-116-R2-J3-PDC patient-derived pancreatic carcinoma cell line growth inhibition [POLQ]
Details: for viability, T/C: stronger effect = lower value
Procedure: Multicellular complex tumor spheroid response to Polymerase (POL) inhibitors (novobiocin, ART-558, RP6685) in combination with a variety of drugs and investigational agents in selected tumor cell lines
The POL inhibitors (novobiocin, ART-558, and RP6685) were evaluated both individually and in combination with standard of care and investigational anticancer small molecules within a complex spheroid model of solid tumors. . Complex spheroids include a stromal component modeled by human endothelial cells (HUVEC) and fibroblasts modeled by human mesenchymal stem cells (MSCs). The concentration ranges selected for each drug and investigational agent were based upon clinically achievable concentrations if the clinical Cmax of the agent was known.
Compounds. The drugs and investigational agents: novobiocin (NSC847541), ART-558 (NSC835418), RP-6685 (NSC848927), peposertib (NSC802822), ceralasertib (NSC780249), elimusertib (NSC800525), camonsertib (NSC841442), AZD-1390 (NSC803789), olaparib (NSC753686), talazoparib (NSC767125), rucaparib (NSC756644), sotorasib (NSC818433), MRTX-1133 (NSC836407), SN-38 (NSC673596), topotecan (NSC609699), epotoside (NSC141540), doxorubicin (NSC123127), gemcitabine (NSC613327), 5-fluorouracil (NSC19893), paclitaxel (NSC125973), vemurafenib (NSC761431), MSA-2 (NSC828583), SN-011 (NSC837082), adavosertib (NSC754352), prexasertib (NSC758257), carboplatin (NSC241240) and oxaliplatin (NSC266046), were obtained from the National Cancer Institute (NCI) Developmental Therapeutics Program Chemical Repository (21). The FDA-approved anticancer drug set is available from the Developmental Therapeutics Program at https://dtp.cancer.gov/organization/dscb/obtaining/. […] The stock solutions were prepared in dimethyl sulfoxide (DMSO, Sigma-Aldrich, St. Louis, MO, cat. D2650), except for the platinum compounds which were prepared in saline (Quality Biological, Gaithersburg, MD, cat. 114-055-101), at 800-fold the tested concentration and stored at -70 degrees C prior to their use. All drugs and investigational agents were tested over a range starting from a high concentration at or near the clinical Cmax and decreasing in half-log increments. If the clinical Cmax for an agent had not been determined, the highest concentration tested was 10 microM, except for SN-38, which was tested at a high concentration of 1 microM.
Cell Culture. All cells were maintained in an incubator at 37 degrees C and 5% CO2 with 95% humidity. The PDC lines were cultured according to standard operating procedures established by the NCI PDMR (https://pdmr.cancer.gov). Table 3 of the manuscript, lists the cell lines along with the number of the three cell types plated to form the mct-spheroids and media for tumor cell growth. After thawing, all PDC lines, except 997537-175-T-J1-PDC and 415267-285-R-J2-PDC, were cultured in Matrigel-coated flasks prepared with a working solution of 1X Ham's F-12 nutrient mix, without supplementation (Thermo Fisher Scientific, cat. 11765054), 100 U/mL penicillin-streptomycin (Thermo Fisher Scientific, cat. 15140122), and 2.5% Matrigel (Corning Inc., Corning, NY, cat. 354248) for the first three passages. The two PDC lines 997537-175-T-J1-PDC and 415267-285-R-J2-PDC were cultured on uncoated flasks. The 857933-349-R-J2-PDC line was cultured in 6C/Colon 1B media containing advanced DMEM/F-12 (Thermo Fisher Scientific, cat. 12634028), 10 mM HEPES (Thermo Fisher Scientific, cat. 15630080), 1X GlutaMAX supplement (Thermo Fisher Scientific, cat. 35050061), 0.1 mg/mL primocin (InvivoGen, San Diego, CA, cat. ant-pm-2), 10% defined fetal bovine serum, heat inactivated (HyClone Laboratories Inc., Logan, UT, cat. SH30070.03HI), 50% L-WRN conditioned media (ATCC, cat. CRL-3276), 1.25 mM N-Acetyl-L-cysteine (Sigma-Aldrich, cat. A9165), 10 mM nicotinamide (Sigma-Aldrich, cat. N0636), 1X B-27 supplement (Thermo Fisher Scientific, cat. 17504044), 1X N-2 supplement (Thermo Fisher Scientific, cat. […]

[1] = curve of first compound, second compound 0.0316 µM
[2] = curve of first compound, second compound 0.1 µM
[3] = curve of first compound, second compound 0.316 µM
[4] = curve of first compound, second compound 1 µM
[5] = curve of first compound, second compound 3.16 µM
[6] = curve of first compound, second compound 10 µM
[7] = second compound 0.0316 µM, first compound 0.0316 µM
[8] = second compound 0.0316 µM, first compound 0.1 µM
[9] = second compound 0.0316 µM, first compound 0.316 µM
[10] = second compound 0.0316 µM, first compound 1 µM
[11] = second compound 0.0316 µM, first compound 3.16 µM
[12] = second compound 0.0316 µM, first compound 10 µM
[13] = second compound 0.1 µM, first compound 0.0316 µM
[14] = second compound 0.1 µM, first compound 0.1 µM
[15] = second compound 0.1 µM, first compound 0.316 µM
[16] = second compound 0.1 µM, first compound 1 µM
[17] = second compound 0.1 µM, first compound 3.16 µM
[18] = second compound 0.1 µM, first compound 10 µM
[19] = second compound 0.316 µM, first compound 0.0316 µM
[20] = second compound 0.316 µM, first compound 0.1 µM
[21] = second compound 0.316 µM, first compound 0.316 µM
[22] = second compound 0.316 µM, first compound 1 µM
[23] = second compound 0.316 µM, first compound 3.16 µM
[24] = second compound 0.316 µM, first compound 10 µM
[25] = second compound 1 µM, first compound 0.0316 µM
[26] = second compound 1 µM, first compound 0.1 µM
[27] = second compound 1 µM, first compound 0.316 µM
[28] = second compound 1 µM, first compound 1 µM
[29] = second compound 1 µM, first compound 3.16 µM
[30] = second compound 1 µM, first compound 10 µM
[31] = second compound 3.16 µM, first compound 0.0316 µM
[32] = second compound 3.16 µM, first compound 0.1 µM
[33] = second compound 3.16 µM, first compound 0.316 µM
[34] = second compound 3.16 µM, first compound 1 µM
[35] = second compound 3.16 µM, first compound 3.16 µM
[36] = second compound 3.16 µM, first compound 10 µM
[37] = second compound 10 µM, first compound 0.0316 µM
[38] = second compound 10 µM, first compound 0.1 µM
[39] = second compound 10 µM, first compound 0.316 µM
[40] = second compound 10 µM, first compound 1 µM
[41] = second compound 10 µM, first compound 3.16 µM
[42] = second compound 10 µM, first compound 10 µM
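Note: spheroids exposed to drugs for seven days before measurement.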
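Throughout, for viability, T/C: percent viability relative to DMSO vehicle control wells taken as 100%.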

Structure (SMILES): CC(C)n1c(=O)n(C)c2cnc3cc(F)c(-c4ccc(OCCCN5CCCCC5)nc4)cc3c21 + Nc1ccc(C#CCN(C(=O)Cc2ncc(C(F)(F)F)cc2C(F)(F)F)c2ccc(F)cc2)nn1
- IC50 [1]: > 10 µM
- IC50 [2]: > 10 µM
- IC50 [3]: > 10 µM
- IC50 [4]: > 10 µM
- IC50 [5]: > 10 µM
- IC50 [6]: > 10 µM
- viability, T/C [7]: 101%
- viability, T/C [8]: 96%
- viability, T/C [9]: 101%
- viability, T/C [10]: 96.7%
- viability, T/C [11]: 102%
- viability, T/C [12]: 75.8%
- viability, T/C [13]: 99.3%
- viability, T/C [14]: 100%
- viability, T/C [15]: 103%
- viability, T/C [16]: 115%
- viability, T/C [17]: 99.6%
- viability, T/C [18]: 76.1%
- viability, T/C [19]: 102%
- viability, T/C [20]: 102%
- viability, T/C [21]: 117%
- viability, T/C [22]: 103%
- viability, T/C [23]: 101%
- viability, T/C [24]: 83.8%
- viability, T/C [25]: 114%
- viability, T/C [26]: 106%
- viability, T/C [27]: 108%
- viability, T/C [28]: 114%
- viability, T/C [29]: 106%
- viability, T/C [30]: 74.7%
- viability, T/C [31]: 111%
- viability, T/C [32]: 113%
- viability, T/C [33]: 105%
- viability, T/C [34]: 114%
- viability, T/C [35]: 101%
- viability, T/C [36]: 83.8%
- viability, T/C [37]: 123%
- viability, T/C [38]: 107%
- viability, T/C [39]: 114%
- viability, T/C [40]: 114%
- viability, T/C [41]: 104%
- viability, T/C [42]: 76.9%

Structure (SMILES): CCc1cc2c(N3CCc4c(cc(Cn5ccnc5)cc4-c4cn(C)nc4C(F)(F)F)C3=O)cc(C)nc2c(OC)n1 + COC1C(OC(N)=O)C(O)C(Oc2ccc3c(O)c(NC(=O)c4ccc(O)c(CC=C(C)C)c4)c(=O)oc3c2C)OC1(C)C
- IC50 [1]: > 10 µM
- IC50 [2]: > 10 µM
- IC50 [3]: > 10 µM
- IC50 [4]: > 10 µM
- IC50 [5]: > 10 µM
- IC50 [6]: > 10 µM
- viability, T/C [7]: 111%
- viability, T/C [8]: 93.7%
- viability, T/C [9]: 91.5%
- viability, T/C [10]: 87.9%
- viability, T/C [11]: 87.2%
- viability, T/C [12]: 75.1%
- viability, T/C [13]: 94.1%
- viability, T/C [14]: 107%
- viability, T/C [15]: 95.2%
- viability, T/C [16]: 91.2%
- viability, T/C [17]: 81%
- viability, T/C [18]: 71%
- viability, T/C [19]: 101%
- viability, T/C [20]: 103%
- viability, T/C [21]: 91.8%
- viability, T/C [22]: 94.1%
- viability, T/C [23]: 83.6%
- viability, T/C [24]: 73.2%
- viability, T/C [25]: 110%
- viability, T/C [26]: 95%
- viability, T/C [27]: 105%
- viability, T/C [28]: 98%
- viability, T/C [29]: 84.7%
- viability, T/C [30]: 76.3%
- viability, T/C [31]: 109%
- viability, T/C [32]: 102%
- viability, T/C [33]: 93.9%
- viability, T/C [34]: 88.2%
- viability, T/C [35]: 85.9%
- viability, T/C [36]: 70.3%
- viability, T/C [37]: 103%
- viability, T/C [38]: 90.5%
- viability, T/C [39]: 89.6%
- viability, T/C [40]: 85.3%
- viability, T/C [41]: 84%
- viability, T/C [42]: 67.6%

Structure (SMILES): C=CCn1c(=O)c2cnc(Nc3ccc(N4CCN(C)CC4)cc3)nc2n1-c1cccc(C(C)(C)O)n1
- viability, T/C (compound 0.00316 µM): 108% and 106% and 102%
- viability, T/C (compound 0.01 µM): 96.7% and 98.2% and 99.6%
- viability, T/C (compound 0.0316 µM): 110% and 99.7% and 102%
- viability, T/C (compound 0.1 µM): 105% and 104% and 98.3%
- viability, T/C (compound 0.316 µM): 86.9% and 73.9% and 63.5%
- viability, T/C (compound 1 µM): 17.3% and 10.9% and 9.18%
- IC50 (curve of compound): 0.583 µM and 0.49 µM and 0.421 µM

Structure (SMILES): COC1C(OC(N)=O)C(O)C(Oc2ccc3c(O)c(NC(=O)c4ccc(O)c(CC=C(C)C)c4)c(=O)oc3c2C)OC1(C)C (stereo not given)
- viability, T/C (compound 0.0316 µM): 106% [middle of 13 runs]
- viability, T/C (compound 0.1 µM): 111% [middle of 13 runs]
- viability, T/C (compound 0.316 µM): 105% [middle of 13 runs]
- viability, T/C (compound 1 µM): 102% [middle of 13 runs]
- viability, T/C (compound 3.16 µM): 102% [middle of 13 runs]
- viability, T/C (compound 10 µM): 109% [middle of 13 runs]
- IC50 (compound alone, run of 10/31/2023): > 10 µM

Structure (SMILES): CC(C)n1c(=O)n(C)c2cnc3cc(F)c(-c4ccc(OCCCN5CCCCC5)nc4)cc3c21
- viability, T/C (compound 0.0316 µM): 106% and 110% and 109%
- viability, T/C (compound 0.1 µM): 96.6% and 98.5% and 110%
- viability, T/C (compound 0.316 µM): 107% and 110% and 113%
- viability, T/C (compound 1 µM): 109% and 97.5% and 118%
- viability, T/C (compound 3.16 µM): 98% and 97.2% and 102%
- viability, T/C (compound 10 µM): 81.2% and 84% and 89.7%
- IC50 (curve of compound): > 10 µM
